Test results as given in US20050171182A1, “Methods and compositions for use in the treatment of mutant receptor tyrosine kinase driven cellular proliferative diseases” (priority 2003, published 2005).
Like-named read-outs stand apart in the source and are kept apart here.

What was measured:
K562 cells = assay: MTT viability assay, K562 cells; type: cell-based
Description: (§1) Given that mutant Flt3 activates cyclin D/CDK4 signaling, the effect of the CDK4 inhibitor arcyriaflavin on the viability of MV4-11 cells was tested. As a control in this experiment, an inhibitor for cyclin A/CDK2 and cyclin E/CDK2 (purvalanol) as well as an inhibitor for cyclin B/CDK1 (alsterpaullone) was included. […] The inhibitors were also tested against EOL-1 cells, which express the mutant fusion kinase FiplL1-PDGFROα and against K562 and BV173 cells (CML cell lines) and THP-1 and U937 cells (AML cell lines). The dilution range of the inhibitors was from 20 μM to 10 nM.
(§2) Viability of the cell lines was determined by an MTT assay, which is based on the reduction of the tetrazolium salt 3, [4,5-dimethylthiazol-2-yl]-2,5-diphenyltetrazolium bromide (MTT). Mitochondrial enzymes associated with metabolic activity reduce MTT to a formazan dye, which can be measured spectrometrically. Cells undergoing apoptosis show reduced metabolic activity resulting in reduced formation of the formazan dye.

BV173 cells = assay: MTT viability assay, BV173 cells; type: cell-based
Description: as §1, §2

EOL-1 cells = assay: cells; details: for IC50: read-out: Viability (IC50) EOL-1; for effect on viability of EOL-1 cells, presence of cytokines: 1 μM (U0126 10 μM), FIGS. 2, 4, 6, GM-CSF and IL-3 10 ng/mL each
Description: as §1, §2
(§3) The bone marrow environment is known to contain a multitude of cytokines. […] The cell lines were incubated with the appropriate inhibitor in the presence and absence of the cytokines GM-CSF and IL-3 (10 ng/mL each).
(§4) To test the role of MEK in the survival of MV4-11 and EOL-1 cells, a viability assay (48 hour incubation) was performed using U0126 (10 μM), an MEK specific inhibitor (see FIG. 5).

MV4-11 cells = assay: cells; details: for IC50: read-out: Viability (IC50) MV4-11
Description: as §1, §2, §3, §4

THP-1 cells = assay: cells; details: for IC50: read-out: Viability (IC50) THP-1; for effect on viability of THP-1 cells: 48 hours, arcyriaflavin 1 μM, U0126 10 μM, FIGS. 4-6, absence and presence of cytokines
Description: as §1, §2, §3, §4

U937 cells = assay: MTT viability assay, U937 cells; type: cell-based
Description: as §1, §2

[1] = exposed to inhibitor for 72 hours
[2] = exposed to inhibitor for 72 hours, MTT
[3] = 48 hours, arcyriaflavin 1 μM, U0126 10 μM, FIGS. 5, 6, absence and presence of cytokines

purvalanol
IC50 (K562 cells; [1]): > 10000 nM | IC50 (BV173 cells; [1]): > 10000 nM | IC50 (EOL-1 cells; [2]): > 10000 nM | IC50 (MV4-11 cells; [2]): 3000 nM | IC50 (THP-1 cells; [2]): > 10000 nM | IC50 (U937 cells; [1]): > 10000 nM

N#CC(=C(/N)Sc1ccccc1N)/C(C#N)=C(\N)Sc1ccccc1N [U0126, 1,4-diamino-2,3-dicyano-1,4-bis[2-aminophenylthio]butadiene]
effect on survival/viability of EOL-1 cells, overall (EOL-1 cells; [3]): slightly alters | viability at 10 µM (EOL-1 cells; Homo sapiens, EOL1, 48 h, read-out: Viability (%) EOL-1 cell line, Cytokines Absent): 80% | Viability (%) EOL-1 cell line, GM-CSF/IL-3 (10 ng/mL each) (EOL-1 cells; human, 48 h, 10 μM): 103% | effect on survival/viability of MV4-11 cells, overall (MV4-11 cells; [3]): slightly alters | viability at 10 µM (MV4-11 cells; Homo sapiens, MV4-11, 48 h, read-out: Viability (%) MV4-11 cell line, Cytokines Absent): 103% | Viability (%) MV4-11 cell line, GM-CSF/IL-3 (10 ng/mL each) (MV4-11 cells; human, 48 h, 10 μM): 90% | effect on viability of THP-1 cells (THP-1 cells): slightly alters | viability at 10 µM (THP-1 cells; Homo sapiens, THP-1, 48 h, read-out: Viability (%) THP-1 cell line, Cytokines Absent): 79% | Viability (%) THP-1 cell line, GM-CSF/IL-3 (10 ng/mL each) (THP-1 cells; human, 48 h, 10 μM): 97%

CS(=O)(=O)O.Cc1ccc(NC(=O)c2ccc(CN3CCN(C)CC3)cc2)cc1Nc1nccc(-c2cccnc2)n1 [imatinib]
effect on viability of EOL-1 cells, presence of cytokines (EOL-1 cells; 48 hours): much less affected | effect on viability of EOL-1 cells, absence of cytokines (EOL-1 cells; 48 hours, 1 μM, FIGS. 2, 4, cytokines absent): strongly reduce

O=C1Cc2c([nH]c3ccc([N+](=O)[O-])cc23)-c2ccccc2N1 [alsterpaullone]
IC50 (K562 cells; Homo sapiens, K562, exposed to inhibitor for 72 hours): > 10000 nM | IC50 (BV173 cells; Homo sapiens, BV-173, exposed to inhibitor for 72 hours): 1000 nM | IC50 (EOL-1 cells; Homo sapiens, EOL1, 72 h): 1000 nM | IC50 (MV4-11 cells; Homo sapiens, MV4-11, 72 h): 1000 nM | IC50 (THP-1 cells; Homo sapiens, THP-1, 72 h): 1000 nM | IC50 (U937 cells; Homo sapiens, U-937, exposed to inhibitor for 72 hours): 600 nM

O=C1NC(=O)c2c1c1c3ccccc3[nH]c1c1[nH]c3ccccc3c21 [arcyriaflavin, arcyriaflavin A]
IC50 (K562 cells; [1]): > 10000 nM | IC50 (BV173 cells; [1]): > 10000 nM | Viability (%) EOL-1 cell line, GM-CSF/IL-3 (10 ng/mL each) (EOL-1 cells): 60% | effect on viability of EOL-1 cells, presence of cytokines (EOL-1 cells; 48 hours): much reduced | IC50 (EOL-1 cells; [2]): 200 nM | Viability (%) MV4-11 cell line, GM-CSF/IL-3 (10 ng/mL each) (MV4-11 cells): 52% | effect on viability of MV4-11 cells, presence of cytokines (MV4-11 cells; 48 hours, 1 μM (U0126 10 μM), FIGS. 3, 4, 6, GM-CSF and IL-3 10 ng/mL each): much reduced | IC50 (MV4-11 cells; [2]): 500 nM | Viability (%) THP-1 cell line, GM-CSF/IL-3 (10 ng/mL each) (THP-1 cells): 96% | effect on viability of THP-1 cells (THP-1 cells): not affected | IC50 (THP-1 cells; [2]): > 10000 nM | IC50 (U937 cells; [1]): > 10000 nM
